Results: US6169074A, “Peptide inhibitors of neurotransmitter secretion by neuronal cells” (The Regents of the University of California, priority 1997, dated 2001)

Key:
[1] = system: catecholamine release from permeabilized bovine chromaffin cells; format: cell-based; details: for IC50: read-out: concentration reaching 50% inhibitory activity (inhibition of Ca2+ dependent secretion); for effect on Ca2+ dependent (Ca2+-triggered) secretion: peptides at 100 μM concentration, FIG. 7A
mouse neuron = test: Mouse neuron inhibition assay (Mehta, et al., 1996); format: cell-based
Method: ii. 47% at 2 μM; 87% at 20 μM, as measured in the mouse neuron inhibition assay described in, for example, Mehta, et al., Proc. Natl. Acad. Sci. USA, 93:10471-10476, 1996 (incorporated herein for purposes of reference).

Which IC50 [1] does the source give for “170-EIDTQNRQIDRIMEKADSNK-189 [ESUP/E20h]” here?
Its IC50 is 1.8 µM.

Which IC50 [1] does the source give for “181-IMEKADSNKTRIDEANQRATKMLGSG-206 [ESUP/E26h]” here?
Its IC50 is 0.25 µM.

Which results are given for “187-SNKTRIDEANQRATKMLGSG-206 [ESUP/A20h, 20-mer peptide encompassing the C-terminal region of SNAP-25 (aa 187-206)]”?
Inhibitory Activity ([1]; at 100 μM peptide, bovine chromaffin cells): 65%; IC50 [1]: 12 µM; Inhibitory Activity (mouse neuron; at 2 μM peptide): 47%; Inhibitory Activity (mouse neuron; at 20 μM peptide): 87%

For “MLDEQGEQLER [SNAP-25(49-59), reference compound]”, which “effect on Ca2+ dependent (Ca2+-triggered) secretion” value [1] is on record?
The value was “did not affect”.

Which “effect on Ca2+ dependent (Ca2+-triggered) secretion” value [1] does the source give for “TDSSGREMIKANKQLANGTR [ESUP/20Ah^RD, control peptide with the same amino acid composition as ESUP/A20h but in random order, reference compound]” here?
The value was “no effect”.
